The text below walks through data of patent publication US6552053B2, “Controlling attention and memory by altering neuronal carbonic anhydrase activity” (The United States of America as represented by the …, priority 2000, dated 2003).

For data set [1] the following is noted: rat, intraperitoneal dose; cited from earlier work.
Data set [2] concerns GABAergic inputs to hippocampal CA1 pyramidal cells. In words: Evoked GABAergic postsynaptic responses (IPSPs) of CA1 pyramidal cells. It is filed as cell-based, rat. Here is the method: (§1) Hippocampal slice electrophysiology. CA1 field potentials were recorded with glass microelectrodes filled with an artificial cerebrospinal fluid solution (ACSF; see below). […] Whole slices were used unless otherwise indicated. […] Signals were amplified with AxoClamp-2B amplifier, digitized, stored, and analyzed using DigiData 1200 with P-Clamp6 software (Axon Instruments). Frequency and amplitude values of oscillation were taken from an average of five consecutive traces, all triggered at the same level of the same phase. Capacitance was optimally adjusted during discontinuous current-clamp mode before and after cell penetration to neutralize capacitance and reduce overshoot/undershoot errors. Discontinuous single-electrode voltage-clamp mode was used for voltage-clamping, employing a sampling rate of 3.0-5.0 kHz (30% duty cycle). Gain was usually set at 6-8 nA·mV^−1, slightly below the maximum value without causing overshoot or instability in the step response to a repetitive 10 mV step command. Bipolar stimulating electrodes (Teflon-insulated PtIr wire with 25 μm in diameter) were placed in s. pyramidale, within 200 μm, from the recording electrode, for stimulation of interneurons (50 μA, 50 μA) in the pyramidale layer. In some cases, the position of the stimulating electrodes was slightly varied within the CA1 cell layer to obtain monophasic postsynaptic responses. […] In some experiments, an additional stimulating electrode was placed in the stratum radiatum to stimulate the Schaffer collateral pathway (Sch). Experiments in which >20% variations in the evoked IPSP magnitudes occurred during the 10-min control period were discarded.

The test system of data set [3] is BAS-CA1 synapses of CA1 pyramidal cells. Briefly: BAS-CA1 postsynaptic potentials of CA1 pyramidal cells (Example 2). Format: cell-based, rat. As to conditions: for effect of ACET itself on BAS-CA1 IPSPs / effect on CE action on the synaptic response: ACET 10 μM; for increase in evoked BAS-CA1 IPSPs: agent injected into the recorded pyramidal cell; for effect on CE action on BAS-CA1 PSP: agent injected into the recorded pyramidal cell before/with CE. As for the experimental part: Chemicals. Cloned CE (without the C-terminal P-loop) containing a His9 leader sequence was expressed in BL21 (DE3) Escherichia coli cells and purified by repeated affinity chromatography on Ni^2+-charged His-Bind columns (Novagen). […] Heat-inactivated proteins (100° C. for 5 min) were used as control.
Electrophysiology. […] CA1 pyramidal cells were recorded intracellularly with sharp electrodes. Intracellular microelectrode recording rather than whole-cell clamp avoids immediate internal perfusion of the test proteins and agents into the cells and marked run-down of γ-aminobutyrate (GABA)-evoked currents. […] A bipolar stimulating electrode (Teflon-insulated PtIr wire 25 μm in diameter) was also placed in the stratum pyramidale, within 200 μm from the recording electrode, for stimulation of basket interneurons (BAS) (50 μA). In some experiments, an additional bipolar electrode was placed in the stratum radiatum to stimulate the Schaffer collateral pathway (SCH). CA1 neurons with stable resting membrane potential more negative than −70 mV were studied. […] Signals were amplified with AxoClamp-2B amplifier and digitized and stored by using a DigiData 1200 with the PCLAMP6 data collection and analysis software (Axon Instruments) and a Pentium PC computer. Experiments in which >20% variations in the evoked inhibitory postsynaptic potentials (IPSPs) during a 10 min control period occurred were discarded. Percent baseline PSP at each minute was calculated by dividing its value by baseline PSP then multiplying the result by 100. Baseline PSP was the mean of 10 min before treatments in each cell. A negative sign was added to indicate its inhibitory nature so that −100% is baseline IPSP and a positive value indicates an excitatory response. Differences were considered significant at P<0.05.

Data set [4] can be described thus: Morris watermaze spatial memory task.
In data set [5] the test system is hippocampal CA1 pyramidal cells. Briefly: Intracellular recording of CA1 pyramidal cells: membrane potential θ, discharge, input resistance. Format: cell-based, rat. Here is the method:
as §1

Data set [6] has as its system SCH-CA1 excitatory postsynaptic potentials. In words: Schaffer collateral (SCH)-CA1 excitatory postsynaptic potentials. It is filed as cell-based, rat. As for the experimental part:
Hippocampal slice electrophysiology. CA1 field potentials were recorded with glass microelectrodes filled with an artificial cerebrospinal fluid solution (ACSF; see below). Male Sprague-Dawley rats ([…]) were decapitated, and the brains were removed and cooled rapidly in an ACSF solution (˜4° C.), bubbled continuously with 95% O2-5% CO2. Hippocampi were sliced ([…]), placed in oxygenated ACSF (in mM: 124 NaCl, 3 KCl; 1.3 MgSO4; 2.4 CaCl2; 26 NaHCO3; 1.25 NaH2PO4; and 10 glucose), and perfused (2 ml/min) with the oxygenated ACSF in an interface chamber at 30-31 ° C. Whole slices were used unless otherwise indicated. CA1 pyramidal cells were recorded intracellularly (Sun, M. -K., Nelson, T. J., Xu, H., and Alkon, D. L. Calexcitin transformation of GABAergic synapses: from excitation filter to amplifier. Proc. Natl. Acad. Sci. USA 96: 7023-7028, 1999, for cell labeling) with sharp electrodes (3M KAc; tip resistance: 60-120 M; to prevent “run-down” of GABAergic responses in whole-cell recordings due to wash out of intracellular factors). […] Signals were amplified with AxoClamp-2B amplifier, digitized, stored, and analyzed using DigiData 1200 with P-Clamp6 software (Axon Instruments). […]
Electrophysiology. […] CA1 pyramidal cells were recorded intracellularly with sharp electrodes. […]

The subject of data set [7] is hippocampal CA1 field potential. In words: CA1 field potential θ oscillation in hippocampal slices. It is filed as cell-based, rat. Here is the method: as §1
The subject of data set [8] is SCH-CA1 excitatory postsynaptic potentials. As to conditions: kynurenate 500 μM (Sun et al. 1999); cited from earlier work.
For a further data set, the system named is RyR. As to conditions: cited from earlier work.
The mark [9] stands for this setting: 30 min, listed as Acetazolamide.
Where [10] appears, read: CA3 and dentate gyrus dissected away.
[11] abbreviates: kynurenate 500 μM, 20-30 min, CCH-induced θ.

Entries after “also recorded” stand apart in the source; their conditions may differ. Where a name gives a salt, the structure may show the parent alone. Some results are limits rather than exact numbers.

In the case of `CC(=O)Nc1nnc(S(N)(=O)=O)s1` [ACET, acetazolamide], the “time to peak concentration in the blood” value in [1] is at most 1 h. In addition, the “evoked IPSP in the presence of ACET and CCH” value in data set [2] (bath ACET 1 μM, CCH 50 μM) was −7.7±1.0 mV. Further, the “effect on CE-induced synaptic transformation” value in data set [3] (ACET 1 μM) was “eliminates”. In addition, in data set [3] (ACET 1 μM, 30 min, vs −100% control value), the “BAS-CA1 IPSPs 30 min after CE injection in the presence of ACET” value is −99.2±3.5%. In [3] (30 min), the “effect of ACET itself on BAS-CA1 IPSPs” value is on record as “sufficient to transform the BAS-CA1 IPSPs” and the “effect on CE action on the synaptic response” value is recorded as “abolishing effects of CE”. Moreover, in [3] (setting [9]), the “effect of ACET itself on BAS-CA1 IPSPs” value was “sufficient to maintain IPSPs” and the “effect on CE action on the synaptic response” value was “eliminating transformative effects of calexcitin”. In addition, the “reduction in escape latency during training trials vs saline group” value in data set [4] (ACET 5 mg/0.5 ml/day ip (14-18 mg/kg), 65-70 min before first trial) is “strikingly smaller reduction”. In addition, the “quadrant preference 24 h after last training trial” value in [4] (ACET 5 mg/0.5 ml/day ip during training) is “no preference to a particular quadrant”. Moreover, in data set [4] (during the experimental periods), the “signs of discomfort or abnormal behaviors” value is “no rats showed any apparent sign of discomfort or abnormal behaviors”. For the same molecule, the “memory retrieval: quadrant 4 preference vs saline control rats” value in data set [4] (single ACET injection (5 mg/0.5 ml) 24 h after last training trial of trained rats, test 65-70 min later) is given as “no significant difference”. In data set [5], the “effect on calexcitin-induced intracellular θ activity” value is reported as “did not induce; also recorded: prevented” and the “induction of intracellular θ activity by CCH in presence of ACET” value is listed as “nor intracellular θ activity (n=10; FIG. 4B3) was induced”.
As to `O=C(O)CN(CC(=O)O)c1ccccc1OCCOc1ccccc1N(CC(=O)O)CC(=O)O` [BAPTA, 1,2-bis(2-aminophenoxy)ethane-N,N,N′,N′-tetraacetic acid], in [3], the “increase in evoked BAS-CA1 IPSPs” value is reported as 17.4%±3.9% and the “effect on CE action on BAS-CA1 PSP” value is “not induced; also recorded: blocking”.
In the case of `C[N+](C)(C)CCOC(N)=O` [CCH, carbachol], the “GABAergic postsynaptic response after CCH” value in data set [2] (30 min after CCH application, pre-CCH membrane potential maintained) was “+5.1±0.4 mV”. The “reversal potential of GABAergic postsynaptic responses” value in data set [2] (during CCH 50 μM) is −68.4±2.8 mV. The “response of pyramidal cells to stimulation of GABAergic inputs” value in data set [2] (in the presence of CCH, θ frequency stimulation) was “elicited instantly phase-locked firing of pyramidal cells”. Besides, the “evoked GABAergic current after CCH (inward current)” value in data set [2] (voltage clamp, CCH 50 μM) amounted to 0.19±0.05 nA. In addition, the “single-pulse SCH stimulation-evoked excitatory postsynaptic potential” value in data set [6] (CCH) is “not altered”. In data set [7] (setting [10]), the “CCH-induced θ activity amplitude in CA1 minislices” value is recorded as 0.73±0.04 mV and the “CCH-induced θ activity frequency in CA1 minislices” value is 7.7±0.9 Hz. In addition, in [7] (CCH 50 μM, 20 min), the “duration of θ field potential (post-CCH recording period)” value is on record as around 3 h. For the same molecule, the “θ field potential peak amplitude” value in data set [7] (CCH 50 μM, 20 min, bath applied, whole slices) stood at 0.75±0.03 mV. In addition, the “θ field potential frequency” value in data set [7] (CCH 50 μM, 20 min, whole slices) is reported as 7.8±0.8 Hz. Also, the “input resistance when θ activity became evident” value in data set [5] (CCH) was 79.2±1.6 MΩ. Besides, the “θ oscillation of membrane potential (intracellular θ)” value in [5] (CCH 50 μM) is recorded as 7.8±1.1 mV. The averaged discharge rate in [5] (CCH, 5-min observing period) was determined as 2.7±0.3 spikes/s.
With `O=C(O)c1cc(=O)c2ccccc2[nH]1` [KYN, kynurenic acid], the “excitatory postsynaptic responses of CA1 pyramidal cells to SCH stimulation” value in data set [8] is “effectively abolished”. Also, the “effect on evoked IPSPs” value in [2] (kynurenate 500 μM) is on record as “not altered”. Further, in data set [3] (KYN 500 μM), the “BAS-CA1 IPSP in the presence of KYN” value is −8.1±0.4 mV and the “reversal potential of BAS-CA1 PSPs in the presence of KYN” value is on record as −78.9 mV. Moreover, the “effect on evoked BAS-CA1 IPSPs” value in [3] (KYN 500 μM, 20 min) was “does not alter”. Further, the “elimination of SCH-CA1 EPSPs” value in [6] (KYN 500 μM, 20 min) is on record as above 90%. In [7] (setting [11]), the “θ oscillation frequency in presence of kynurenate” value was “did not change” and the “θ oscillation magnitude in presence of kynurenate” value was “slightly reduced”.
With `N.N.N.N.N.N.N.N.N.N.N.N.N.N.[Cl-].[Cl-].[Cl-].[Cl-].[Cl-].[Cl-].[O-2].[O-2].[Ru+3].[Ru+3].[Ru+4]` [RR, ruthenium red], in data set [3], the “increase in evoked BAS-CA1 IPSPs” value is 16.3%±4.0% and the “effect on CE action on BAS-CA1 PSP” value is recorded as “effectively blocked”. Further, in the data set on RyR, the IC50 entry is on record as “nanomolar range”.
Regarding `CN1[C@@H]2CC[C@H]1C[C@@H](OC(=O)C(CO)c1ccccc1)C2` (stereo partly drawn) [atropine sulfate], the “effect on CCH-induced θ field activity” value in [7] was “blocked”.
For the molecule `NS(=O)(=O)c1nnc(NS(=O)(=O)c2ccccc2)s1` [benzolamide], the “effect on CCH-induced reversed GABAergic responses” value in [2] (intracellular application of benzolamide (0.1 mM in electrode)) was “prevented”.
